What was measured:
[1] = system: α1-acid glycoprotein (AGP); assay: SPR
[2] = target: human serum albumin (HSA) (Homo sapiens, UniProt P02768); assay: SPR
[3] = target: T1, hCB2R (Homo sapiens, UniProt P34972); assay: cAMP determination assay, forskolin-stimulated HEK293-CB2R cells; conditions: for effect on forskolin-stimulated cAMP accumulation, preliminary screening: 200 nM and 1 μM; for effect on forskolin-stimulated cAMP accumulation, preliminary screening / CB2 functional profile in cAMP assay: HEK293-CB2R cells; for CB2R antagonism of CP55,940 effect in cAMP assay: CP55,940 100 nM and 1 μM, compound at 200 nM (31 also at 1 μM)
T1 sequence (P34972 whole entry): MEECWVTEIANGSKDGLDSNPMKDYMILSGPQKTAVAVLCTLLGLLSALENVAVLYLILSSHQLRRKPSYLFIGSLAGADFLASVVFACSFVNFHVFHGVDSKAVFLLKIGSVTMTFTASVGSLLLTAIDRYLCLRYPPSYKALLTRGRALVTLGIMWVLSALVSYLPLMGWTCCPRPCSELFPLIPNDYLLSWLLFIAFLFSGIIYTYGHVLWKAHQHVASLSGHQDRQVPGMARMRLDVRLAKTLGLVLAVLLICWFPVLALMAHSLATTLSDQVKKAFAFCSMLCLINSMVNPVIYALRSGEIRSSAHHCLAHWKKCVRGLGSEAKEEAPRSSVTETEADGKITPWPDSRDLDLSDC

[4] = target: T1, hCB2R; assay: [35S]-GTPγS binding assay, CB2R-containing membranes
[5] = target: human CB1 (hCB1) cannabinoid receptor (Homo sapiens, UniProt P21554); assay: biochemical; type: binding
Sequence of human CB1 (hCB1) cannabinoid receptor (P21554 whole entry): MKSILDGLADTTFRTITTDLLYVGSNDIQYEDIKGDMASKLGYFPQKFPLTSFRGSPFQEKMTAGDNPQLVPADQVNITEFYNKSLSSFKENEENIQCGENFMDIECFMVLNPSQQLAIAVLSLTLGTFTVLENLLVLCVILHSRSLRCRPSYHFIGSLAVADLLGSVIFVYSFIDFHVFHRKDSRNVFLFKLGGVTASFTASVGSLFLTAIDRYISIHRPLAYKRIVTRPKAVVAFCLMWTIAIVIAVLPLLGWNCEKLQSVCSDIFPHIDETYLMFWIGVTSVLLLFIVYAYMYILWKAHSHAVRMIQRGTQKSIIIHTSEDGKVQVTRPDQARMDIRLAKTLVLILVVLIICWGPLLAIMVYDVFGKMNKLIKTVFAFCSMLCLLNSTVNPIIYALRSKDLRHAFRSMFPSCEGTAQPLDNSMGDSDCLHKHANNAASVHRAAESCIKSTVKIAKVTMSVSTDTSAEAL

[6] = target: human CB2 (hCB2) cannabinoid receptor (Homo sapiens, UniProt P34972); assay: [3H]-CP55,940 radioligand competition binding, hCB2 membranes
Sequence of human CB2 (hCB2) cannabinoid receptor (P34972 whole entry): as the sequence (P34972 whole entry) above

[7] = target: human CB1 receptor (Homo sapiens, UniProt P21554); type: biochemical
Sequence of human CB1 receptor (P21554 whole entry): as the sequence (P21554 whole entry) above

Sequence of human serum albumin (HSA) (P02768 25-609): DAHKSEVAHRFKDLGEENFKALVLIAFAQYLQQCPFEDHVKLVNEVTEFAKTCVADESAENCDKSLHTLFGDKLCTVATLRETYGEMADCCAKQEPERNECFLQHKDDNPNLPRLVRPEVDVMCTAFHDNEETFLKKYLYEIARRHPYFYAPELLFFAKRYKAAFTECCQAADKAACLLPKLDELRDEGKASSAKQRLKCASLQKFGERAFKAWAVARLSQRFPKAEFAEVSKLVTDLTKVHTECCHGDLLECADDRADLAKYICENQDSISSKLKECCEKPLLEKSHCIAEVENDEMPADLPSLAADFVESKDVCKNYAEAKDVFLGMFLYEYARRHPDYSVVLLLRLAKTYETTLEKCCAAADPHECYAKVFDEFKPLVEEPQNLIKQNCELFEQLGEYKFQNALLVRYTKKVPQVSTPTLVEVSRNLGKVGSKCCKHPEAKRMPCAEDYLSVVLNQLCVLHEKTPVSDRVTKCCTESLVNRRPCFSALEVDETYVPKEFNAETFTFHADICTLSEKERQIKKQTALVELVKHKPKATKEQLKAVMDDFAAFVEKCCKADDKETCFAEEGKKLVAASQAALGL

Row | Structure (SMILES) | AGP binding level [1] | HSA binding level [2] | effect on forskolin-stimulated cAMP accumulation, preliminary screening [3] | CB2 functional profile in cAMP assay [3] | further results
1 | CCCCC/C=C\C/C=C\C/C=C\C/C=C\CCCC(=O)NCCO [AEA, anandamide, reference compound] | very high |  |  |  | 
2 | C=C(C)[C@@H]1CCC(C)=C[C@H]1c1c(O)cc(CCCCC)cc1O [CBD, cannabidiol, reference compound] | very high | high |  |  | 
3 | CCCCCCC(C)(C)c1ccc([C@@H]2C[C@H](O)CC[C@H]2CCCO)c(O)c1 [CP55,940, reference compound] |  | high |  |  | 
4 | CCCCC/C=C\C/C=C\C/C=C\C/C=C\CCCC(=O)OC(CO)CO [Compound 2-AG, 2-arachidonoylglycerol, reference compound] | very high | high |  |  | 
5 | CCCCCCC(C)(C)c1cc(OC)c2c(c1)OC(C)(C)c1cn(C)nc1-2 [Compound 16, 7-(1,1-Dimethylheptyl)-2,4-dihydro-9-methox y-2,4,4-trimethylchromeno[4,3-c]pyrazole] |  |  | no effect |  | CB2R antagonism of CP55,940 effect in cAMP assay [3]: able to antagonize the effect of the cannabinoid agonist CP55,940
6 | CCCCCCC(C)(C)c1cc(OC)c2c(c1)OC(C)(C)c1cnn(CC)c1-2 [Compound 17, 7-(1,1-Dimethylheptyl)-1-ethyl-1,4-dihydro-9-methoxy-4,4-dimethylchromeno[4,3-c]pyrazole] |  |  | low to high inhibition | partial or weak agonists | 
7 | CCCCCCC(C)(C)c1cc(OC)c2c(c1)OC(C)(C)c1cn(CC)nc1-2 [Compound 18, 7-(1,1-Dimethylheptyl)-2-ethyl-2,4-dihydro-9-methoxy-4,4-dimethylchromeno[4,3-c]pyrazole] | very high | very high | low to high inhibition | partial or weak agonists | 
8 | CCCCCCC(C)(C)c1cc(OCc2ccccc2)c2c(c1)OC(C)(C)c1cn[nH]c1-2 [Compound 22, 9-Benzyloxy-2,4-dihydro-7 - (1,1-di m ethylheptyl)-4,4 - dimethylchromeno[4,3-c]pyrazole] |  |  | low to high inhibition | partial or weak agonists | 
9 | CCCCCCC(C)(C)c1cc(OCCCO)c2c(c1)OC(C)(C)c1cn[nH]c1-2 [Compound 28, 7-(1,1-Dimethylheptyl)-2,4-dihydro-9-(3-hydroxypropoxy)-4,4-dimethylchromeno[4,3-c]pyrazole] | very high | very high | low to high inhibition | partial or weak agonists | 
10 | CCCCCCC(C)(C)c1cc(OCCCO)c2c(c1)OC(C)(C)c1cn(CC)nc1-2 [Compound 31, 7-(1,1-Dimethylheptyl)-2-ethyl-2,4-dihydro-9-(3-hydroxypropoxy)-4,4-dimethylchromeno-[4,3-c]pyrazole] |  |  | no effect |  | CB2R antagonism of CP55,940 effect in cAMP assay [3]: behaved as the CP55,940 antagonist only at the highest concentration
11 | CCCCCCC(C)(C)c1cc(OCCO)c2c(c1)OC(C)(C)c1cn[nH]c1-2 [Compound 34, 7-(1,1-Dimethylheptyl)-2,4-dihydro-9-(2-hydroxyethoxy)-4,4-dimethylchromeno[4,3-c]pyra-zole] |  |  | low to high inhibition | potent CB2 agonists | IC50 [4]: 95.1 ± 7.2 nM
12 | CCCCCCC(C)(C)c1cc(OCCO)c2c(c1)OC(C)(C)c1cn(C)nc1-2 [Compound 35, 7-(1,1-Dimethylheptyl)-2,4-dihydro-9-(2-hydroxyethoxy)-2,4,4-trimethylchromeno[4,3-c]py-razole] |  |  | no effect |  | CB2R antagonism of CP55,940 effect in cAMP assay [3]: able to antagonize the effect of the cannabinoid agonist CP55,940
13 | CCCCCCC(C)(C)c1cc(OCCO)c2c(c1)OC(C)(C)c1cn(CC)nc1-2 [Compound 36, 7-(1,1-Dimethylheptyl)-2-ethyl-2,4-dihydro-9-(2-hydroxyethoxy)-4,4-dimethylchromeno[4,3-c]pyrazole] | very high | very high |  |  | 
14 | CCCCCCC(C)(C)c1cc(OCCCBr)c2c(c1)OC(C)(C)c1cn(C)nc1-2 [Compound 37, 9-(3-Bromopropoxy)-7-(1,1-dimethylheptyl)-2,4-dihydro-2,4,4-trimethylchromeno[4,3-c]py-razole] | very high | very high | low to high inhibition | partial or weak agonists | 
15 | CCCCCCC(C)(C)c1cc(OCCBr)c2c(c1)OC(C)(C)c1cnn(CC)c1-2 [Compound 39, 9-(2-Bromoethoxy)-7-(1,1-dimethylheptyl)-1-ethyl-1,4-dihydro-4,4-dimethylchromeno[4,3-c]pyrazole] | medium | medium | low to high inhibition | partial or weak agonists | Ki [5]: 1330 ± 320 nM; Ki [6]: 78.7 ± 11.3 nM
16 | CCCCCCC(C)(C)c1cc2c(c3c1CCCO3)-c1c(cnn1CC)C(C)(C)O2 [Compound 40, 7-(1,1-Dimethylheptyl)-1-ethyl-1,4,9,10-tetrahydro-4,4-dimethyl-8H-pyrano[2′,3′:5,6]chrome-no[4,3-c]pyrazole] | medium | medium |  |  | 
17 | CCCCCCC(C)(C)c1cc(O)c2c(c1)OC(C)(C)c1cnoc1-2 [Compound 42, 7-(1,1-Dimethylheptyl)-4,4-dimethyl-4H-chromeno[3,4-d]-isoxazol-9-ol] | very high | very high |  |  | fold more potent than 10b and 22 in [35S]-GTPγS binding (CB1R) [7]: at least 10 fold; IC50 [4]: 50.2 ± 24.9 nM
18 | CCCCCCC(C)(C)c1cc(OC)c2c(c1)OC(C)(C)c1cnoc1-2 [Compound 43, 7-(1,1-Dimethylheptyl)-9-methoxy-4,4-dimethyl-4H-chromeno-[3,4-d]isoxazole] | medium | medium |  |  | IC50 [4]: 38.6 ± 6.7 nM
19 | CCCCCCC(C)(C)c1cc(OCCCO)c2c(c1)OC(C)(C)c1cnoc1-2 [Compound 44, 7-(1,1-Dimethylheptyl)-9-(3-hydroxypropoxy)-4,4-dimethyl-4H-chromeno[3,4-d]isoxazole] |  |  |  |  | IC50 [4]: 540 ± 208 nM
